From US7893266B2, “Detection of cancer cells in vitro using sigma-2 receptor ligands as radiotracers” (Washington University, priority 2003, dated 2011)
Like-named read-outs stand apart in the source and are kept apart here. Values belong to the compound of their own block, whether it stands above or below them.

How the values were obtained:
[1] = test system: EMT-6 mammary tumors; test: Biodistribution in EMT-6 BALB/C mice; format: in vivo
Method: (§1) As used herein, the term “tumor:background ratio” (i.e., tumor:fat ratio, tumor:muscle ratio, tumor:lung ratio, tumor:blood ratio) refers to the % injected dose/g tissue of the radiotracer in the tumor divided by the % injected dose/g […] in the background tissue (i.e., fat, muscle, lung, blood).
(§2) B. Biodistribution Studies of ^11C analogs in Tumor-Bearing Mice. Biodistribution studies were conducted in mature Balb/c mice that were implanted with EMT-6 mammary tumors identified herein as EMT-6 BALB/C mice to create laboratory tumor-bearing mice. The mice were implanted in the scapular region seven days prior to the study. Animals were injected with 100-150 μCi of the ^11C-labeled radiotracer and the animals were sacrificed at 5, 30, and 60 min post-i.v. injection of the radiotracer.
(§3) A series of biodistribution studies in tumor-bearing mice were also conducted with [^76Br]8, [^76Br]6, [^125I]8i, and [^125I]6i.

[2] = test system: EMT-6 mammary tumors; test: Comparison with [18F]FLT in tumor-bearing mice; format: in vivo; conditions: 1 hr for [11C]10; 2 hr post-i.v. injection for [76Br]6 and [125I]6i
[3] = target: T1, σ2 receptors in the breast tumors (Mus musculus, UniProt Q8VD00); test: In vivo blocking studies with YUN 143 in tumor-bearing mice; conditions: blocking agent YUN 143 (1 mg/kg, i.v.); time point of highest % I.D./gram tumor
T1 construct: mature Balb/c mice that were implanted with EMT-6 mammary tumors; from tissue; host or cells: EMT-6 mammary tumours in Balb/c mice, in vivo
T1 sequence (Q8VD00 1-176): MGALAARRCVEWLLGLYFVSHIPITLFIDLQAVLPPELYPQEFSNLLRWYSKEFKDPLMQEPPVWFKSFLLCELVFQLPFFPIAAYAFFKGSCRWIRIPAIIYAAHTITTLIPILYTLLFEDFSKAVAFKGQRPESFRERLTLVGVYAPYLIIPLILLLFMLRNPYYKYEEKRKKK
From the text: The blocking agent was YUN 143, which has a high affinity for σ1 and σ2 receptors. Animals were sacrificed at the time point displaying the highest % I.D./gram tumor.
The inventors then conducted blocking studies in order to confirm that the radiotracer labeled σ2 receptors in the breast tumors. […] We have previously reported that [^18F]YUN 143 labels σ1 and σ2 receptors in breast tumor xenografts (Mach et al., 2001).

[4] = Biodistribution in EMT-6 BALB/C mice; format: in vivo; conditions: Balb/c, mouse, intravenous
Method: as §1, §2, §3

[5] = kidney, read-out: % ID per gram kidney
[6] = liver, read-out: % ID per gram liver

ratio Tumor:blood ([1]; 5 min): 1.37 ± 0.33
ratio Tumor:fat ([1]; 5 min): 2.28 ± 0.32
ratio Tumor:heart ([1]; 5 min): 0.71 ± 0.12
ratio Tumor:lung ([1]; 5 min): 0.31 ± 0.11
ratio Tumor:muscle ([1]; 5 min): 0.93 ± 0.13
ratio Tumor:blood ([1]; 30 min): 1.80 ± 0.26
ratio Tumor:fat ([1]; 30 min): 3.68 ± 1.14
ratio Tumor:heart ([1]; 30 min): 2.53 ± 0.55
ratio Tumor:lung ([1]; 30 min): 1.06 ± 0.24
ratio Tumor:muscle ([1]; 30 min): 3.18 ± 0.51
ratio Tumor:blood ([1]; 1 hour): 1.81 ± 0.11
ratio Tumor:fat ([1]; 1 hour): 5.36 ± 2.38
ratio Tumor:heart ([1]; 1 hour): 2.78 ± 0.79
ratio Tumor:lung ([1]; 1 hour): 1.28 ± 0.41
ratio Tumor:muscle ([1]; 1 hour): 2.78 ± 0.62
% ID per gram blood ([1]; 5 min): 3.09 ± 0.33 % ID per gram
% ID per gram blood ([1]; 30 min): 1.31 ± 0.11 % ID per gram
% ID per gram blood ([1]; 1 hour): 0.73 ± 0.05 % ID per gram
% ID per gram brain ([1]; 5 min): 2.29 ± 0.28 % ID per gram
% ID per gram brain ([1]; 30 min): 0.28 ± 0.03 % ID per gram
% ID per gram brain ([1]; 1 hour): 0.15 ± 0.01 % ID per gram
% ID per gram fat ([1]; 5 min): 1.88 ± 0.50 % ID per gram
% ID per gram fat ([1]; 30 min): 0.68 ± 0.19 % ID per gram
% ID per gram fat ([1]; 1 hour): 0.33 ± 0.24 % ID per gram
% ID per gram heart ([1]; 5 min): 5.86 ± 0.47 % ID per gram
% ID per gram heart ([1]; 30 min): 0.95 ± 0.17 % ID per gram
% ID per gram heart ([1]; 1 hour): 0.50 ± 0.11 % ID per gram
% ID per gram kidney ([1]; 5 min): 20.50 ± 1.86 % ID per gram
% ID per gram kidney ([1]; 30 min): 4.12 ± 0.51 % ID per gram
% ID per gram kidney ([1]; 1 hour): 2.26 ± 0.36 % ID per gram
% ID per gram liver ([1]; 5 min): 12.32 ± 1.73 % ID per gram
% ID per gram liver ([1]; 30 min): 9.65 ± 2.00 % ID per gram
% ID per gram liver ([1]; 1 hour): 3.00 ± 0.21 % ID per gram
% ID per gram lung ([1]; 5 min): 14.02 ± 1.40 % ID per gram
% ID per gram lung ([1]; 30 min): 2.27 ± 0.42 % ID per gram
% ID per gram lung ([1]; 1 hour): 1.09 ± 0.26 % ID per gram
% ID per gram muscle ([1]; 5 min): 4.49 ± 0.45 % ID per gram
% ID per gram muscle ([1]; 30 min): 0.75 ± 0.13 % ID per gram
% ID per gram muscle ([1]; 1 hour): 0.49 ± 0.11 % ID per gram
% ID per gram tumor ([1]; 5 min): 4.22 ± 1.01 % ID per gram
% ID per gram tumor ([1]; 30 min): 2.35 ± 0.27 % ID per gram
% ID per gram tumor ([1]; 1 hour): 1.32 ± 0.17 % ID per gram
SMILES: COc1cc2c(cc1OC)CN(CCCCNC(=O)c1cc(C)cc(OC)c1O[11CH3])CC2 [[^11C]10]
tumor:background ratios compared with [18F]FLT [2]: tumor:lung and tumor:fat ratios equal to [^18F]FLT and tumor:blood, tumor:muscle and tumor:heart ratios that are greater than that of [18F]FLT
in vivo blocking study result [3]: consistent with the labeling of σ2 receptors in vivo

tissue uptake at 2 h [4, 5]: 2.45 ± 0.25 %ID/g
tissue uptake at 4 h [4, 5]: 0.63 ± 0.11 %ID/g
tissue uptake at 2 h [4, 6]: 1.91 ± 0.2 %ID/g
tissue uptake at 4 h [4, 6]: 0.9 ± 0.21 %ID/g
tissue uptake at 4 h ([4]; lung, read-out: % ID per gram lung): 0.29 ± 0.05 %ID/g
ratio Tumor:blood ([1]; 5 min): 1.73 ± 0.46
ratio Tumor:fat ([1]; 5 min): 1.00 ± 0.20
ratio Tumor:heart ([1]; 5 min): 0.61 ± 0.07
ratio Tumor:lung ([1]; 5 min): 0.15 ± 0.02
ratio Tumor:muscle ([1]; 5 min): 0.98 ± 0.13
ratio Tumor:blood ([1]; 30 min): 2.07 ± 0.32
ratio Tumor:fat ([1]; 30 min): 2.62 ± 0.27
ratio Tumor:heart ([1]; 30 min): 2.32 ± 0.18
ratio Tumor:lung ([1]; 30 min): 0.82 ± 0.09
ratio Tumor:muscle ([1]; 30 min): 3.94 ± 0.55
ratio Tumor:blood ([1]; 1 hour): 2.44 ± 0.53
ratio Tumor:fat ([1]; 1 hour): 4.85 ± 0.67
ratio Tumor:heart ([1]; 1 hour): 3.89 ± 0.08
ratio Tumor:lung ([1]; 1 hour): 1.66 ± 0.17
ratio Tumor:muscle ([1]; 1 hour): 4.26 ± 0.74
ratio Tumor:blood ([1]; 2 hour): 2.83 ± 1.62
ratio Tumor:fat ([1]; 2 hour): 5.86 ± 2.93
ratio Tumor:heart ([1]; 2 hour): 4.85 ± 2.31
ratio Tumor:lung ([1]; 2 hour): 1.99 ± 1.04
ratio Tumor:muscle ([1]; 2 hour): 6.99 ± 4.44
ratio Tumor:blood ([1]; 4 hour): 3.11 ± 0.85
ratio Tumor:fat ([1]; 4 hour): 9.59 ± 4.55
ratio Tumor:heart ([1]; 4 hour): 5.91 ± 1.65
ratio Tumor:lung ([1]; 4 hour): 2.83 ± 0.19
ratio Tumor:muscle ([1]; 4 hour): 8.98 ± 3.01
% ID per gram blood ([1]; 5 min): 2.37 ± 0.26 % ID per gram
% ID per gram blood ([1]; 30 min): 2.19 ± 0.16 % ID per gram
% ID per gram blood ([1]; 1 hour): 1.52 ± 0.49 % ID per gram
% ID per gram blood ([1]; 2 hour): 0.65 ± 0.07 % ID per gram
% ID per gram blood ([1]; 4 hour): 0.29 ± 0.11 % ID per gram
% ID per gram brain ([1]; 5 min): 1.53 ± 0.14 % ID per gram
% ID per gram brain ([1]; 30 min): 0.39 ± 0.03 % ID per gram
% ID per gram brain ([1]; 1 hour): 0.15 ± 0.03 % ID per gram
% ID per gram brain ([1]; 2 hour): 0.06 ± 0.01 % ID per gram
% ID per gram brain ([1]; 4 hour): 0.02 ± 0.01 % ID per gram
% ID per gram fat ([1]; 5 min): 4.15 ± 0.91 % ID per gram
% ID per gram fat ([1]; 30 min): 1.73 ± 0.20 % ID per gram
% ID per gram fat ([1]; 1 hour): 0.74 ± 0.17 % ID per gram
% ID per gram fat ([1]; 2 hour): 0.33 ± 0.08 % ID per gram
% ID per gram fat ([1]; 4 hour): 0.10 ± 0.05 % ID per gram
% ID per gram heart ([1]; 5 min): 6.55 ± 0.54 % ID per gram
% ID per gram heart ([1]; 30 min): 1.94 ± 0.09 % ID per gram
% ID per gram heart ([1]; 1 hour): 0.91 ± 0.10 % ID per gram
% ID per gram heart ([1]; 2 hour): 0.40 ± 0.05 % ID per gram
% ID per gram heart ([1]; 4 hour): 0.15 ± 0.04 % ID per gram
% ID per gram kidney ([1]; 5 min): 29.51 ± 2.23 % ID per gram
% ID per gram kidney ([1]; 30 min): 13.69 ± 0.35 % ID per gram
% ID per gram kidney ([1]; 1 hour): 5.94 ± 1.22 % ID per gram
% ID per gram liver ([1]; 5 min): 13.20 ± 2.04 % ID per gram
% ID per gram liver ([1]; 30 min): 8.77 ± 0.88 % ID per gram
% ID per gram liver ([1]; 1 hour): 4.24 ± 0.60 % ID per gram
% ID per gram lung ([1]; 5 min): 27.13 ± 1.61 % ID per gram
% ID per gram lung ([1]; 30 min): 5.50 ± 0.62 % ID per gram
% ID per gram lung ([1]; 1 hour): 2.12 ± 0.19 % ID per gram
% ID per gram lung ([1]; 2 hour): 1.01 ± 0.18 % ID per gram
% ID per gram muscle ([1]; 5 min): 4.10 ± 0.33 % ID per gram
% ID per gram muscle ([1]; 30 min): 1.21 ± 0.17 % ID per gram
% ID per gram muscle ([1]; 1 hour): 0.87 ± 0.22 % ID per gram
% ID per gram muscle ([1]; 2 hour): 0.31 ± 0.10 % ID per gram
% ID per gram muscle ([1]; 4 hour): 0.10 ± 0.04 % ID per gram
% ID per gram tumor ([1]; 5 min): 4.02 ± 0.55 % ID per gram
% ID per gram tumor ([1]; 30 min): 4.50 ± 0.43 % ID per gram
% ID per gram tumor ([1]; 1 hour): 3.53 ± 0.42 % ID per gram
% ID per gram tumor ([1]; 2 hour): 1.88 ± 0.76 % ID per gram
% ID per gram tumor ([1]; 4 hour): 0.82 ± 0.09 % ID per gram
SMILES: COc1cc2c(cc1OC)CN(CCCCNC(=O)c1cc([125I])cc(OC)c1OC)CC2 [[^125I]6i]
in vivo blocking study result [3]: consistent with the labeling of σ2 receptors in vivo
